Measured values taken from ChEMBL document CHEMBL4376806, “Antibiotic Adjuvants: Make Antibiotics Great Again!” (2019).
One block for each compound: values may come before it.

Columns and labels:
Type in all cases: functional
Escherichia coli [1] = experiment: Potentiation of chloramphenicol-induced antibacterial activity against Escherichia coli AG100 assessed as chloramphenicol MIC at 0.4 ug/ml after 18 hrs (reference value: 8 ug/ml); details: AG100, 18 h
Escherichia coli [2] = experiment: Potentiation of ciprofloxacin-induced antibacterial activity against Escherichia coli AG100 assessed as ciprofloxacin MIC at 0.4 ug/ml after 18 hrs (reference value: 0.25 ug/ml); details: AG100, 18 h
Escherichia coli [3] = experiment: Potentiation of tetracycline-induced antibacterial activity against Escherichia coli AG100 assessed as tetracycline MIC at 0.4 ug/ml after 18 hrs (reference value: 2 ug/ml); details: AG100, 18 h
Escherichia coli [4] = experiment: Potentiation of cefepime-induced antibacterial activity against Escherichia coli AG100 assessed as cefepime MIC at 0.4 ug/ml after 18 hrs (reference value: 0.5 ug/ml); details: AG100, 18 h
Escherichia coli [5] = experiment: Potentiation of erythromycin-induced antibacterial activity against Escherichia coli AG100 assessed as erythromycin MIC at 0.4 ug/ml after 18 hrs (reference value: 512 ug/ml); details: AG100, 18 h
Pseudomonas aeruginosa [6] = experiment: Potentiation of chloramphenicol-induced antibacterial activity against Pseudomonas aeruginosa PAO1 assessed as chloramphenicol MIC at 3.2 ug/ml after 18 hrs (reference value: 512 ug/ml); details: PAO1, 18 h
Pseudomonas aeruginosa [7] = experiment: Potentiation of ciprofloxacin-induced antibacterial activity against Pseudomonas aeruginosa PAO1 assessed as ciprofloxacin MIC at 3.2 ug/ml after 18 hrs (reference value: 16 ug/ml); details: PAO1, 18 h
Pseudomonas aeruginosa [8] = experiment: Potentiation of tetracycline-induced antibacterial activity against Pseudomonas aeruginosa PAO1 assessed as tetracycline MIC at 3.2 ug/ml after 18 hrs (reference value: 16 ug/ml); details: PAO1, 18 h
Pseudomonas aeruginosa [9] = experiment: Potentiation of cefepime-induced antibacterial activity against Pseudomonas aeruginosa PAO1 assessed as cefepime MIC at 3.2 ug/ml after 18 hrs (reference value: 8 ug/ml); details: PAO1, 18 h
Pseudomonas aeruginosa [10] = experiment: Potentiation of erythromycin-induced antibacterial activity against Pseudomonas aeruginosa PAO1 assessed as erythromycin MIC at 3.2 ug/ml after 18 hrs (reference value: 512 ug/ml); details: PAO1, 18 h
Klebsiella aerogenes [11] = experiment: Potentiation of ciprofloxacin-induced antibacterial activity against Enterobacter aerogenes ATCC 13048 assessed as ciprofloxacin MIC at 1.6 ug/ml after 18 hrs (reference value: 0.5 ug/ml); details: ATCC 13048, 18 h
Klebsiella aerogenes [12] = experiment: Potentiation of chloramphenicol-induced antibacterial activity against Enterobacter aerogenes ATCC 13048 assessed as chloramphenicol MIC at 1.6 ug/ml after 18 hrs (reference value: 4 ug/ml); details: ATCC 13048, 18 h
Klebsiella aerogenes [13] = experiment: Potentiation of tetracycline-induced antibacterial activity against Enterobacter aerogenes ATCC 13048 assessed as tetracycline MIC at 1.6 ug/ml after 18 hrs (reference value: 2 ug/ml); details: ATCC 13048, 18 h
Klebsiella aerogenes [14] = experiment: Potentiation of cefepime-induced antibacterial activity against Enterobacter aerogenes ATCC 13048 assessed as cefepime MIC at 1.6 ug/ml after 18 hrs (reference value: 0.25 ug/ml); details: ATCC 13048, 18 h
Klebsiella aerogenes [15] = experiment: Potentiation of erythromycin-induced antibacterial activity against Enterobacter aerogenes ATCC 13048 assessed as erythromycin MIC at 1.6 ug/ml after 18 hrs (reference value: 512 ug/ml); details: ATCC 13048, 18 h
Escherichia coli [16] = experiment: Potentiation of novobiocin-induced antibacterial activity against Escherichia coli W3110 assessed as novobiocin MIC at 8 ug/ml after 20 hrs by liquid microdilution method (reference value: 128 ug/ml); details: K-12 substr. W3110, 20 h
Escherichia coli [17] = experiment: Potentiation of erythromycin-induced antibacterial activity against Escherichia coli W3110 assessed as erythromycin MIC at 8 ug/ml after 20 hrs by liquid microdilution method (reference value: 64 ug/ml); details: K-12 substr. W3110, 20 h
Pseudomonas aeruginosa [18] = experiment: Potentiation of doxycycline-induced antibacterial activity against Pseudomonas aeruginosa PAO1 assessed as doxycycline MIC at 1.22 ug/ml by broth micro-dilution method (reference value: 32 ug/ml)
Pseudomonas aeruginosa [19] = experiment: Synergistic antibacterial activity against Pseudomonas aeruginosa assessed as fractional inhibitory concentration index in presence of doxycycline after 18 hrs by checkerboard assay
Pseudomonas aeruginosa [20] = experiment: Potentiation of doxycycline-induced antibacterial activity against Pseudomonas aeruginosa PAO1 assessed as doxycycline MIC at 2 ug/ml after 24 hrs by broth microdilution method (reference value: 16 ug/ml); details: PAO1, 24 h
Klebsiella aerogenes [21] = experiment: Potentiation of doxycycline-induced antibacterial activity against Enterobacter aerogenes EA289 assessed as doxycycline MIC at 2 ug/ml after 24 hrs by broth microdilution method (reference value: 40 ug/ml); details: EA289, 24 h
Klebsiella pneumoniae = experiment: Potentiation of doxycycline-induced antibacterial activity against Klebsiella pneumoniae KPC2 assessed as doxycycline MIC at 2.5 uM after 18 hrs (reference value: 10 ug/ml); details: KPC2, 18 h
Klebsiella aerogenes [22] = experiment: Potentiation of doxycycline-induced antibacterial activity against Enterobacter aerogenes EA289 assessed as doxycycline MIC at 5 uM after 18 hrs (reference value: 40 ug/ml); details: EA289, 18 h
Pseudomonas aeruginosa [23] = experiment: Potentiation of doxycycline-induced antibacterial activity against Pseudomonas aeruginosa PAO1 assessed as doxycycline MIC at 1.25 uM after 18 hrs (reference value: 20 ug/ml); details: PAO1, 18 h
Klebsiella aerogenes [24] = experiment: Potentiation of doxycycline-induced antibacterial activity against Enterobacter aerogenes EA289 assessed as doxycycline MIC at 2.5 uM after 18 hrs (reference value: 40 ug/ml); details: EA289, 18 h
Pseudomonas aeruginosa [25] = experiment: Potentiation of doxycycline-induced antibacterial activity against Pseudomonas aeruginosa PAO1 assessed as doxycycline MIC at 2.5 uM after 18 hrs (reference value: 20 ug/ml); details: PAO1, 18 h

MIC (Klebsiella pneumoniae): 2 mg/L
MIC (Klebsiella aerogenes [22]): 2 mg/L
MIC (Pseudomonas aeruginosa [23]): 2 mg/L
SMILES: Cl.Cl.Cl.NCCCCNCCCCNC1CCCCCCCCCCCCCC1

MIC (Klebsiella aerogenes [24]): 2 mg/L
MIC (Pseudomonas aeruginosa [25]): 2 mg/L
MIC (Klebsiella pneumoniae): 2 mg/L
SMILES: Cl.Cl.Cl.NCCCNCCCNC1CCCCCCCCCCCCCC1

More lines, now with the values behind:

SMILES: CC(C)[C@@H](CC[C@@H](C)[C@H]1CC[C@H]2[C@@H]3[C@H](O)C[C@H]4C[C@@H](NCCCNCCCCN)CC[C@]4(C)[C@H]3CC[C@]12C)OS(=O)(=O)O [SQUALAMINE]
MIC (Escherichia coli [1]): 0.5 mg/L
MIC (Escherichia coli [2]): 0.03 mg/L
MIC (Escherichia coli [3]): 0.125 mg/L
MIC (Escherichia coli [4]): 0.06 mg/L
MIC (Escherichia coli [5]): 256 mg/L
MIC (Pseudomonas aeruginosa [6]): 16 mg/L
MIC (Pseudomonas aeruginosa [7]): < 1 mg/L
MIC (Pseudomonas aeruginosa [8]): 4 mg/L
MIC (Pseudomonas aeruginosa [9]): 1 mg/L
MIC (Pseudomonas aeruginosa [10]): 256 mg/L
MIC (Klebsiella aerogenes [11]): 0.015 mg/L
MIC (Klebsiella aerogenes [12]): 0.25 mg/L
MIC (Klebsiella aerogenes [13]): 0.25 mg/L
MIC (Klebsiella aerogenes [14]): 0.03 mg/L
MIC (Klebsiella aerogenes [15]): 128 mg/L

SMILES: COc1ccccc1CNCCCCCCNCCCCCCCCNCCCCCCNCc1ccccc1OC [METHOCTRAMINE]
MIC (Escherichia coli [16]): 16 mg/L
MIC (Escherichia coli [17]): 16 mg/L

SMILES: CC(C)=C/C=C\C(C)=C/CC/C(C)=C/CNCCCNCCCCNCCCN.Cl.Cl.Cl.Cl
MIC (Pseudomonas aeruginosa [18]): 2 mg/L
fractional inhibitory concentration index (FICI) (Pseudomonas aeruginosa [19]): 0.09

SMILES: CC(C)OC(=O)CC[C@@H](C)[C@H]1CC[C@H]2[C@@H]3CC[C@H]4C[C@@H](NCCCNCCCNCCCCNCCCN)CC[C@]4(C)[C@H]3C[C@H](O)[C@]12C
MIC (Pseudomonas aeruginosa [20]): 2 mg/L
MIC (Klebsiella aerogenes [21]): 0.5 mg/L
